pIC50: −log10 of the molar value.
What follows are molecules tested against T1, Recombinant human EP300 containing the bromodomain (EP300-BD (1040-1161)) (Homo sapiens, UniProt Q09472) (assay: EP300 Alphascreen binding assay).
T1 construct: Recombinant human EP300 bromodomain (EP300-BD (1040-1161)); made in house; host or cells: E. coli BL21-CodonPlus (DE3), modified pET vector
T1 sequence (Q09472 1040-1161): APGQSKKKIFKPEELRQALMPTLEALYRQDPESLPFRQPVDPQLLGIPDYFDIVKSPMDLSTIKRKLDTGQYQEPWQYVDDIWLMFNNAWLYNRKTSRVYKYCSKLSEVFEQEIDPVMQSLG
How it was run: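 Displacement of a biotinylated acetyl-K56 histone H3 peptide from the N-His bromodomain construct (1040-1161) measured by AlphaScreen proximity, beads at 7.5 μg/ml final, read 60 min after addition. Protein, peptide and compound first incubated 1 h at room temperature, pH 7.5 HEPES buffer; IC50 by four-parameter logistic fit.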

Row | SMILES | pIC50
1 | Cc1noc(C)c1-c1cnc2c(c1)c(-c1c(F)cc(C(=O)O)cc1F)cn2C(C)c1ccccn1 (stereo not shown) [P-0094, 4-(5-(3,5-dimethylisoxazol-4-yl)-1-(1-(pyridin-2-yl)ethyl)-1H-pyrrolo[2,3-b]pyridin-3-yl)-3,5-difluorobenzoic acid] | 6.00 to 10.00
2 | Cc1noc(C)c1-c1cnc2c(c1)c(-c1cccc(C(=O)NC#N)c1)cn2Cc1ccccc1 [P-0078, 3-(1-benzyl-5-(3,5-dimethylisoxazol-4-yl)-1H-pyrrolo[2,3-b]pyridin-3-yl)-N-cyanobenzamide] | 6.00 to 10.00
3 | Cc1noc(C)c1-c1cnc2c(c1)c(-c1cccc(C(=O)NS(C)(=O)=O)c1)cn2Cc1ccccc1 [P-0092, 3-(1-benzyl-5-(3,5-dimethylisoxazol-4-yl)-1H-pyrrolo[2,3-b]pyridin-3-yl)-N-(methylsulfonyl)benzamide] | 6.00 to 10.00
4 | Cc1noc(C)c1-c1cnc2c(c1)c(-c1cccc(C(=O)NO)c1)cn2Cc1ccccc1 [P-0079, 3-(1-benzyl-5-(3,5-dimethylisoxazol-4-yl)-1H-pyrrolo[2,3-b]pyridin-3-yl)-N-hydroxybenzamide] | 6.00 to 10.00
5 | Cc1noc(C)c1-c1cnc2c(c1)c(-c1cccc(C(=O)O)c1)cn2C(=O)c1ccccc1 [P-0085, 3-(1-benzoyl-5-(3,5-dimethylisoxazol-4-yl)-1H-pyrrolo[2,3-b]pyridin-3-yl)benzoic acid] | 6.00 to 10.00
6 | Cc1noc(C)c1-c1cnc2c(c1)c(-c1cccc(C(=O)O)c1)cn2Cc1cccc(OC(F)(F)F)c1 [P-0059, 3-(5-(3,5-dimethylisoxazol-4-yl)-1-(3-(trifluoromethoxy)benzyl)-1H-pyrrolo[2,3-b]pyridin-3-yl)benzoic acid] | 6.00 to 10.00
7 | Cc1noc(C)c1-c1cnc2c(c1)c(-c1cccc(S(=O)(=O)NC3CC3)c1)cn2Cc1ccccc1 [P-0083, 3-(1-benzyl-5-(3,5-dimethylisoxazol-4-yl)-1H-pyrrolo[2,3-b]pyridin-3-yl)-N-cyclopropylbenzenesulfonamide] | 6.00 to 10.00
8 | Cc1noc(C)c1-c1cnc2c(CC3CCC3)cn(-c3c(C(=O)O)ccc(Br)c3F)c2c1 [P-0086, 4-bromo-2-(3-(cyclobutylmethyl)-6-(3,5-dimethylisoxazol-4-yl)-1H-pyrrolo[3,2-b]pyridin-1-yl)-3-fluorobenzoic acid] | 6.00 to 10.00
9 | Cc1noc(C)c1-c1cnc2c(CC3CCC3)cn(-c3c(Cl)cc(C(=O)O)cc3Cl)c2c1 [P-0074, 3,5-dichloro-4-(3-(cyclobutylmethyl)-6-(3,5-dimethylisoxazol-4-yl)-1H-pyrrolo[3,2-b]pyridin-1-yl)benzoic acid] | 6.00 to 10.00
10 | Cc1noc(C)c1-c1cnc2c(c1)c(-c1ccnc(C(=O)O)c1)cn2S(=O)(=O)c1ccccc1 [P-0055, 4-(5-(3,5-dimethylisoxazol-4-yl)-1-(phenylsulfonyl)-1H-pyrrolo[2,3-b]pyridin-3-yl)picolinic acid] | 6.00 to 10.00
11 | COc1cc(C(=O)O)cc(OC)c1-n1cc(CC2CCC2)c2ncc(-c3c(C)noc3C)cc21 [P-0067, 4-(3-(cyclobutylmethyl)-6-(3,5-dimethylisoxazol-4-yl)-1H-pyrrolo[3,2-b]pyridin-1-yl)-3,5-dimethoxybenzoic acid] | 6.00 to 10.00
12 | COc1cccc(Cn2cc(-c3ccnc(C(=O)O)c3)c3cc(-c4c(C)noc4C)cnc32)c1 [P-0057, 4-(5-(3,5-dimethylisoxazol-4-yl)-1-(3-methoxybenzyl)-1H-pyrrolo[2,3-b]pyridin-3-yl)picolinic acid] | 6.00 to 10.00
13 | Cc1noc(C)c1-c1cnc2c(c1)c(C1=CCC(C(=O)O)CC1)cn2Cc1ccccc1 (stereo not shown) [P-0093, 4-(1-benzyl-5-(3,5-dimethylisoxazol-4-yl)-1H-pyrrolo[2,3-b]pyridin-3-yl)cyclohex-3-ene-1-carboxylic acid] | 6.00 to 10.00
14 | Cc1noc(C)c1-c1cnc2c(Cc3ccccc3Cl)cn(-c3ccnc(C(=O)O)c3)c2c1 [P-0091, 4-(3-(2-chlorobenzyl)-6-(3,5-dimethylisoxazol-4-yl)-1H-pyrrolo[3,2-b]pyridin-1-yl)picolinic acid] | 6.00 to 10.00
15 | Cc1cc(C(=O)O)cnc1-n1cc(CC2CCC2)c2ncc(-c3c(C)noc3C)cc21 [P-0075, 6-(3-(cyclobutylmethyl)-6-(3,5-dimethylisoxazol-4-yl)-1H-pyrrolo[3,2-b]pyridin-1-yl)-5-methylnicotinic acid] | 6.00 to 10.00
16 | Cc1noc(C)c1-c1cnc2c(Cc3cccc(Cl)c3)cn(-c3ccnc(C(=O)O)c3)c2c1 [P-0090, 4-(3-(3-chlorobenzyl)-6-(3,5-dimethylisoxazol-4-yl)-1H-pyrrolo[3,2-b]pyridin-1-yl)picolinic acid] | 6.00 to 10.00
17 | Cc1noc(C)c1-c1cnc2c(c1)c(-c1ccc(C(=O)O)cc1)cn2C(c1ccccn1)C1CCCCC1 (stereo not shown) [P-0004, 4-(1-(cyclohexyl(pyridin-2-yl)methyl)-5-(3,5-dimethylisoxazol-4-yl)-1H-pyrrolo[2,3-b]pyridin-3-yl)benzoic acid] | 6.00 to 10.00
18 | Cc1noc(C)c1-c1cnc2c(c1)c(-c1cccc(C(=O)O)c1)cn2C(c1ccccn1)C1CCC1 (stereo not shown) [P-0073, 3-(1-(cyclobutyl(pyridin-2-yl)methyl)-5-(3,5-dimethylisoxazol-4-yl)-1H-pyrrolo[2,3-b]pyridin-3-yl)benzoic acid] | 6.00 to 10.00
19 | Cc1noc(C)c1-c1cnc2c(c1)c(-c1cccc(C(=O)O)c1)cn2C(C1CC1)C1CC1 [P-0058, 3-(1-(dicyclopropylmethyl)-5-(3,5-dimethylisoxazol-4-yl)-1H-pyrrolo[2,3-b]pyridin-3-yl)benzoic acid] | 6.00 to 10.00
20 | Cc1noc(C)c1-c1cnc2c(c1)c(-c1ccccc1)cn2C(c1ccccn1)C1CCCC1 (stereo not shown) [P-0003, 4-(1-(cyclopentyl(pyridin-2-yl)methyl)-3-phenyl-1H-pyrrolo[2,3-b]pyridin-5-yl)-3,5-dimethylisoxazole] | 3.00 to 5.10
21 | COc1c(-n2cc(CC3CCC3)c3ncc(-c4c(C)noc4C)cc32)ccc(C(=O)O)c1F [P-0087, 4-(3-(cyclobutylmethyl)-6-(3,5-dimethylisoxazol-4-yl)-1H-pyrrolo[3,2-b]pyridin-1-yl)-2-fluoro-3-methoxybenzoic acid] | 6.00 to 10.00
22 | Cc1noc(C)c1-c1cnc2c(CC3CCC3)cn(-c3ccc(C#N)cc3)c2c1 [P-0076, 4-(3-(cyclobutylmethyl)-6-(3,5-dimethylisoxazol-4-yl)-1H-pyrrolo[3,2-b]pyridin-1-yl)benzonitrile] | 5.10 to 6.00

From patent US11446287B2, “Compounds and methods for EP300 or CBP modulation and indications therefor” (Opna Immuno-Oncology SA, priority 2019, dated 2022)
